2 compounds from patent publication US6809077B2, “Cyclosporin analogs for the treatment of autoimmune diseases” (Enanta Pharmaceuticals, Inc., priority 2001, dated 2004) can be followed below.

Experiment [1] relates to NFAT proteins (pNFAT-Luc luciferase) in cells transfected with pNFAT-Luc. Briefly: NFAT reporter gene assay, cells transfected with pNFAT-Luc, single stimulus. It is filed as cell-based. Particulars: treated with either PMA or onomycin alone. An excerpt:
(§1) NFAT activation follows precisely the activation of calcineurin by increased free calcium levels in the cytoplasm. Researchers from diverse fields are interested in the NFAT family of transcription factors, which are potential targets for newer and safer immunosuppressive drugs. In addition, the activation of NFAT proteins involves various cellular signal transduction pathways, including calcium mobilization and mitogen-activated protein kinase (MAP kinase) pathways linked to T-cell receptors and Ras1. To assist researchers probing the activity of NFAT proteins, Stratagene has developed a PathDetect cis-reporter plasmid, the pNFAT-Luc reporter plasmid (Stratagene, Inc. catalog #219094), containing the NFAT binding site from the human IL-2 gene.2,7-9. The NEAT cis-reporting system includes the transfection-ready pNFAT-Luc reporter plasmid and the pCIS-CK negative control plasmid.
The backbone of the 5749-base-pair pNFAT-Luc plasmid is the pFR-Luc reporter plasmid of the aforementioned PathDetect trans-reporting system. To this backbone, the GAL4 binding element was replaced with four direct repeats of the NFAT binding sequence (−286 to −257) from the IL-2 gene promoter, the most studied and widely used NFAT binding sequence. […]
(In general: A reporter such as luciferase makes a cellular process visible.)

The test system of experiment [2] is NFAT proteins (pNFAT-Luc luciferase) in Chinese hamster ovary cells (CHO cells). Briefly: NFAT reporter gene assay, pNFAT-Luc plasmid in CHO cells. It is filed as cell-based. Particulars: CHO cells transfected with pNFAT-Luc, treated with 60 ng/ml of PMA and 1 μg/ml of inomycin in combination.
From the text: as §1
(§2) The backbone of the 5749-base-pair pNFAT-Luc plasmid is the pFR-Luc reporter plasmid of the aforementioned PathDetect trans-reporting system. […]
(§3) Cyclosporin inhibits the activity of calcineurin, a protein phosphatase regulated by intracellular calcium mobilization. […] The inhibition of luciferase expression from pNFAT-Luc in the present model, in both Jurkat and CHO cells induced by PMA and ionomycin, was monitored for cyclosporin (as a positive control) and the cyclosporin analogs of the present invention.

Experiment [3] has as its system NFAT proteins (pNFAT-Luc luciferase) in Jurkat cells. Nature of the experiment: NFAT reporter gene assay, pNFAT-Luc plasmid in Jurkat cells. It is filed as cell-based, human. The settings on record: Jurkat cells transfected with pNFAT-Luc, treated with 60 ng/ml of PMA and 1 μg/ml of inomycin in combination.
From the text: as §1, §2, §3

Turning to `C[C@H](CCC(=O)O)C[C@H](C)C[C@H](C)C(=O)/C=C(\O)[C@H](C)C[C@H](C)C/C=C/[C@@H](C)[C@@H](O)[C@@H](C)[C@@H](O)C[C@@H]1CC[C@@](C)([C@H]2CC[C@@](C)([C@@H](C)O)O2)O1` [onomycin], the “increase in luciferase activity” value in experiment [1] was “did not show a significant increase”.

Regarding `CCCCCCCCCCCCCC(=O)O[C@@H]1[C@@H](C)[C@@]2(O)[C@@H](C=C(CO)C[C@]3(O)C(=O)C(C)=C[C@@H]23)[C@@H]2C(C)(C)[C@]12OC(C)=O` [PMA], the luciferase activity increased in experiment [2] came out at 16 fold; in experiment [3] it was 13 fold. Also, the “increase in luciferase activity” value in experiment [1] is “did not show a significant increase”.
